Laboratory results published in the NIST ThermoML archive (doi:10.1021/acs.jced.6b00750).

Conditions: Liquid; for mass density: Vibrating wire densiometer; for viscosity: Vibrating wire viscometry

CCCCCCCCCCCCCCCC [hexadecane]
Conditions	mass density [kg/m3]	viscosity [mPa·s]
298.36 K, 1060 kPa	769.2	3.107
298.36 K, 1080 kPa	769.2	3.109
298.36 K, 10010 kPa	775	3.497
298.36 K, 21090 kPa	781.2	4.032
298.36 K, 30500 kPa	786.4	4.534
298.61 K, 970 kPa	768.9	3.143
298.61 K, 10340 kPa	774.7	3.562
298.61 K, 20570 kPa	780.8	4.041
298.61 K, 30370 kPa	785.9	4.588
323.21 K, 1090 kPa	751.5	1.874
323.21 K, 1250 kPa	751.7	1.872
323.21 K, 21100 kPa	765.2	2.387
323.21 K, 40990 kPa	776.9	2.957
323.21 K, 60490 kPa	787.1	3.598
323.21 K, 80320 kPa	796	4.381
323.21 K, 102810 kPa	803.3	5.08
323.22 K, 990 kPa	752.4	1.878
323.22 K, 20960 kPa	764.8	2.429
323.22 K, 42100 kPa	777.2	3.007
323.22 K, 61170 kPa	787.4	3.666
323.22 K, 81170 kPa	796	4.471
348.2 K, 610 kPa	734.8	1.275
348.2 K, 1010 kPa	734.4	1.255
348.2 K, 1070 kPa	734.5	1.251
348.2 K, 20050 kPa	749.2	1.57
348.2 K, 20370 kPa	749.8	1.595
348.2 K, 40520 kPa	762.5	1.939
348.2 K, 40780 kPa	762.9	1.97
348.2 K, 60680 kPa	773.7	2.356
348.2 K, 62000 kPa	773.9	2.398
348.2 K, 80380 kPa	783.3	2.813
348.2 K, 80450 kPa	783.5	2.806
348.2 K, 100940 kPa	791.9	3.278
373.12 K, 1210 kPa	717.2	0.911
373.12 K, 1240 kPa	717.3	0.91
373.12 K, 20080 kPa	733.9	1.136
373.12 K, 40700 kPa	748.6	1.397
373.12 K, 60760 kPa	760.8	1.678
373.12 K, 80760 kPa	771.3	1.988
373.12 K, 100220 kPa	780.9	2.303
373.25 K, 1370 kPa	717.7	0.926
373.25 K, 19850 kPa	733.7	1.148
373.25 K, 40190 kPa	748.6	1.399
373.25 K, 59970 kPa	760.4	1.692
373.25 K, 81310 kPa	771.4	1.995
398.21 K, 1230 kPa	700.1	0.693
398.21 K, 1670 kPa	700.4	0.694
398.21 K, 20450 kPa	719.1	0.872
398.21 K, 40750 kPa	735.1	1.066
398.21 K, 60560 kPa	748.2	1.265
398.21 K, 80390 kPa	759.4	1.488
398.21 K, 100460 kPa	769.4	1.71
398.28 K, 1050 kPa	700.3	0.697
398.28 K, 21190 kPa	719.6	0.879
398.28 K, 41290 kPa	735.3	1.082
398.28 K, 59990 kPa	747.8	1.267
398.28 K, 80670 kPa	759.3	1.498
423.26 K, 1360 kPa	682.2	0.542
423.26 K, 1420 kPa	682.4	0.544
423.26 K, 20790 kPa	704.2	0.691
423.26 K, 40900 kPa	721.5	0.845
423.26 K, 60040 kPa	735.2	0.998
423.26 K, 80490 kPa	747.7	1.171
423.26 K, 100020 kPa	758.2	1.348
423.31 K, 1460 kPa	682.9	0.554
423.31 K, 20610 kPa	704.4	0.699
423.31 K, 40760 kPa	721.8	0.853
423.31 K, 60120 kPa	735.2	1.012
423.31 K, 80990 kPa	748.2	1.189
448.23 K, 1100 kPa	664	0.437
448.23 K, 1170 kPa	664.1	0.438
448.23 K, 20220 kPa	688.7	0.559
448.23 K, 40500 kPa	708.1	0.689
448.23 K, 60460 kPa	723.5	0.82
448.23 K, 80430 kPa	736.5	0.958
448.23 K, 100270 kPa	748	1.098
448.48 K, 1230 kPa	663.8	0.445
448.48 K, 20750 kPa	688.9	0.571
448.48 K, 40680 kPa	707.8	0.702
448.48 K, 60650 kPa	723.1	0.831
448.48 K, 80720 kPa	736.2	0.97
473.54 K, 1250 kPa	645.4	0.359
473.54 K, 1270 kPa	645.8	0.36
473.54 K, 20770 kPa	674.2	0.469
473.54 K, 40980 kPa	695.3	0.579
473.54 K, 60770 kPa	711.8	0.688
473.54 K, 80500 kPa	725.5	0.803
473.54 K, 101080 kPa	738.1	0.924
473.85 K, 1400 kPa	645.2	0.367
473.85 K, 21260 kPa	674.3	0.478
473.85 K, 41040 kPa	694.7	0.59
473.85 K, 61190 kPa	711.3	0.706
473.85 K, 81710 kPa	725.7	0.815
